# Test results: ChEMBL document CHEMBL3797052 (Eur J Med Chem, 2016)
# What was measured:
# [1] = Antiproliferative activity against human OVCAR4 cells assessed as cell growth at 10^-8 M after 48 hrs by sulforhodamine B assay; type: functional; settings: OVCAR-4, 48 h, read-out: Activity
# ACHN [2] = assay: Antiproliferative activity against human ACHN cells assessed as cell growth at 10^-7 M after 48 hrs by sulforhodamine B assay; type: functional; settings: read-out: Activity
# K562 = assay: Antiproliferative activity against human K562 cells assessed as cell growth at 10^-6 M after 48 hrs by sulforhodamine B assay; type: functional; settings: K562, 48 h, read-out: Activity
# [3] = Antiproliferative activity against human SNB75 cells assessed as cell growth at 10^-4 M after 48 hrs by sulforhodamine B assay; type: functional; settings: SNB-75, 48 h, read-out: Activity
# [4] = Antiproliferative activity against human UO31 cells assessed as cell growth at 10^-6 M after 48 hrs by sulforhodamine B assay; type: functional; settings: UO-31, 48 h, read-out: Activity
# SN12C [5] = assay: Antiproliferative activity against human SN12C cells assessed as growth inhibition after 48 hrs by sulforhodamine B assay; type: functional; settings: for CC50: read-out: LC50 (the source's name)
# NCI-H460 = assay: Antiproliferative activity against human NCI-H460 cells assessed as cell growth at 10^-6 M after 48 hrs by sulforhodamine B assay; type: functional; settings: NCI-H460, 48 h, read-out: Activity
# SK-MEL-2 [6] = assay: Antiproliferative activity against human SK-MEL-2 cells assessed as cell growth at 10^-4 M after 48 hrs by sulforhodamine B assay; type: functional; settings: SK-MEL-2, 48 h, read-out: Activity
# [7] = Antiproliferative activity against human OVCAR3 cells assessed as cell growth at 10^-4 M after 48 hrs by sulforhodamine B assay; type: functional; settings: OVCAR-3, 48 h, read-out: Activity
# [8] = Antiproliferative activity against human HCC2998 cells assessed as cell growth at 10^-6 M after 48 hrs by sulforhodamine B assay; type: functional; settings: HCC 2998, 48 h, read-out: Activity
# [9] = Antiproliferative activity against human SNB75 cells assessed as growth inhibition after 48 hrs by sulforhodamine B assay; type: functional; settings: SNB-75, 48 h; for CC50: read-out: LC50 (the source's name)
# [10] = Antiproliferative activity against human SF539 cells assessed as cell growth at 10^-4 M after 48 hrs by sulforhodamine B assay; type: functional; settings: SF-539, 48 h, read-out: Activity
# SK-MEL-2 [11] = assay: Antiproliferative activity against human SK-MEL-2 cells assessed as cell growth at 10^-6 M after 48 hrs by sulforhodamine B assay; type: functional; settings: SK-MEL-2, 48 h, read-out: Activity
# [12] = Antiproliferative activity against human HCT15 cells assessed as cell growth at 10^-7 M after 48 hrs by sulforhodamine B assay; type: functional; settings: HCT-15, 48 h, read-out: Activity
# HT-29 [13] = assay: Antiproliferative activity against human HT-29 cells assessed as cell growth at 10^-7 M after 48 hrs by sulforhodamine B assay; type: functional; settings: HT-29, 48 h, read-out: Activity
# [14] = Antiproliferative activity against human MOLT4 cells assessed as cell growth at 10^-8 M after 48 hrs by sulforhodamine B assay; type: functional; settings: MOLT-4, 48 h, read-out: Activity
# [15] = Antiproliferative activity against human RPMI8226 cells assessed as growth inhibition after 48 hrs by sulforhodamine B assay; type: functional; settings: RPMI-8226, 48 h
# SR = assay: Antiproliferative activity against human SR cells assessed as cell growth at 10^-7 M after 48 hrs by sulforhodamine B assay; type: functional; settings: read-out: Activity
# [16] = Antiproliferative activity against human OVCAR4 cells assessed as cell growth at 10^-4 M after 48 hrs by sulforhodamine B assay; type: functional; settings: OVCAR-4, 48 h, read-out: Activity
# HT-29 [17] = assay: Antiproliferative activity against human HT-29 cells assessed as cell growth at 10^-8 M after 48 hrs by sulforhodamine B assay; type: functional; settings: HT-29, 48 h, read-out: Activity
# [18] = Antiproliferative activity against human Caki1 cells assessed as cell growth at 10^-6 M after 48 hrs by sulforhodamine B assay; type: functional; settings: CAKI-1, 48 h, read-out: Activity
# T47D = assay: Antiproliferative activity against human T47D cells assessed as cell growth at 10^-6 M after 48 hrs by sulforhodamine B assay; type: functional; settings: read-out: Activity
# HT-29 [19] = assay: Antiproliferative activity against human HT-29 cells assessed as cell growth at 10^-4 M after 48 hrs by sulforhodamine B assay; type: functional; settings: HT-29, 48 h, read-out: Activity
# [20] = Antiproliferative activity against human UACC257 cells assessed as cell growth at 10^-4 M after 48 hrs by sulforhodamine B assay; type: functional; settings: UACC-257, 48 h, read-out: Activity
# 786-0 = assay: Antiproliferative activity against human 786-0 cells assessed as cell growth at 10^-6 M after 48 hrs by sulforhodamine B assay; type: functional; settings: 786-0, 48 h, read-out: Activity
# [21] = Antiproliferative activity against human OVCAR5 cells assessed as cell growth at 10^-4 M after 48 hrs by sulforhodamine B assay; type: functional; settings: OVCAR-5, 48 h, read-out: Activity
# [22] = Antiproliferative activity against human UO31 cells assessed as growth inhibition after 48 hrs by sulforhodamine B assay; type: functional; settings: UO-31, 48 h; for CC50: read-out: LC50 (the source's name)
# [23] = Antiproliferative activity against human SKOV3 cells assessed as cell growth at 10^-7 M after 48 hrs by sulforhodamine B assay; type: functional; settings: SK-OV-3, 48 h, read-out: Activity
# NCI-H23 = assay: Antiproliferative activity against human NCI-H23 cells assessed as cell growth at 10^-8 M after 48 hrs by sulforhodamine B assay; type: functional; settings: NCI-H23, 48 h, read-out: Activity
# CCRF-CEM = assay: Antiproliferative activity against human CCRF-CEM cells assessed as cell growth at 10^-6 M after 48 hrs by sulforhodamine B assay; type: functional; settings: read-out: Activity
# MDA-MB-231 = assay: Antiproliferative activity against human MDA-MB-231 cells assessed as cell growth at 10^-8 M after 48 hrs by sulforhodamine B assay; type: functional; settings: MDA-MB-231, 48 h, read-out: Activity
# [24] = Antiproliferative activity against human NCI-ADR-RES cells assessed as cell growth at 10^-8 M after 48 hrs by sulforhodamine B assay; type: functional; settings: read-out: Activity
# U-251 = assay: Antiproliferative activity against human U251 cells assessed as cell growth at 10^-4 M after 48 hrs by sulforhodamine B assay; type: functional; settings: U-251, 48 h, read-out: Activity
# KM12 = assay: Antiproliferative activity against human KM12 cells assessed as cell growth at 10^-6 M after 48 hrs by sulforhodamine B assay; type: functional; settings: KM12, 48 h, read-out: Activity
# SN12C [25] = assay: Antiproliferative activity against human SN12C cells assessed as cell growth at 10^-7 M after 48 hrs by sulforhodamine B assay; type: functional; settings: read-out: Activity
# Malme-3M = assay: Antiproliferative activity against human MALME-3M cells assessed as cell growth at 10^-6 M after 48 hrs by sulforhodamine B assay; type: functional; settings: read-out: Activity
# ACHN [26] = assay: Antiproliferative activity against human ACHN cells assessed as cell growth at 10^-4 M after 48 hrs by sulforhodamine B assay; type: functional; settings: read-out: Activity
# [27] = target: RAF proto-oncogene serine/threonine-protein kinase (Homo sapiens, UniProt P04049); assay: Inhibition of human CRAF at 10 uM measured after 40 mins by scintillation counting
# Sequence of RAF proto-oncogene serine/threonine-protein kinase (P04049 whole entry): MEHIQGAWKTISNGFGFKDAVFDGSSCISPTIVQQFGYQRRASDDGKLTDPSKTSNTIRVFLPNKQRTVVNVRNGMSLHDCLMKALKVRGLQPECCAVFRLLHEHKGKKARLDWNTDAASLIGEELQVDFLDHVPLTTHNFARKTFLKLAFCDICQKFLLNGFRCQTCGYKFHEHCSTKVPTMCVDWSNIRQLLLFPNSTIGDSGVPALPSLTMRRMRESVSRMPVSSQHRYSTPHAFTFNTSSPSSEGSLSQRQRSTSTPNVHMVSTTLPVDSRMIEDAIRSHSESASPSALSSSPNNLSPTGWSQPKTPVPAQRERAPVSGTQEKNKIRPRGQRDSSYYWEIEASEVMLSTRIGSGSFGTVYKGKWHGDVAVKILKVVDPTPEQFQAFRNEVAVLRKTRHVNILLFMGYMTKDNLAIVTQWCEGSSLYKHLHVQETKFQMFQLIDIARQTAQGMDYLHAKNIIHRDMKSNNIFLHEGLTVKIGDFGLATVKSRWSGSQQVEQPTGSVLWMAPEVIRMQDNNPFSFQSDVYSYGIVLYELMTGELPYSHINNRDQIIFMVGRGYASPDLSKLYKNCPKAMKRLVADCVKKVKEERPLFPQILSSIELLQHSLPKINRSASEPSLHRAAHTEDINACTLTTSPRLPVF
smiles,measurement,setting,value
CNC(=O)c1cc(Oc2ccc3nc(NC(=O)c4cc(C(F)(F)F)cc(C(F)(F)F)c4)sc3c2)ccn1,growth at 0.01 µM,[1],95%
same,growth at 0.1 µM,ACHN [2],100%
same,growth at 1 µM,K562,102%
same,growth at 100 µM,[3],-51%
same,growth at 1 µM,[4],78%
same,GI50,SN12C [5],3.22 µM
same,TGI,SN12C [5],12.5 µM
same,CC50,SN12C [5],89.8 µM
same,growth at 1 µM,NCI-H460,101%
same,growth at 100 µM,SK-MEL-2 [6],-53%
same,growth at 100 µM,[7],-79%
same,growth at 1 µM,[8],102%
same,GI50,[9],3.13 µM
same,TGI,[9],14.8 µM
same,CC50,[9],96.5 µM
same,growth at 100 µM,[10],-61%
same,growth at 1 µM,SK-MEL-2 [11],90%
same,growth at 0.1 µM,[12],96%
same,growth at 0.1 µM,HT-29 [13],107%
same,growth at 0.01 µM,[14],86%
same,GI50,[15],2.42 µM
same,LC50,[15],> 100 µM
same,TGI,[15],> 100 µM
same,growth at 0.1 µM,SR,89%
same,growth at 100 µM,[16],-13%
same,growth at 0.01 µM,HT-29 [17],108%
same,growth at 1 µM,[18],88%
same,growth at 1 µM,T47D,100%
same,growth at 100 µM,HT-29 [19],-51%
same,growth at 100 µM,[20],-45%
same,growth at 1 µM,786-0,91%
same,growth at 100 µM,[21],-48%
same,GI50,[22],2.19 µM
same,TGI,[22],8.95 µM
same,CC50,[22],97 µM
same,growth at 0.1 µM,[23],91%
same,growth at 0.01 µM,NCI-H23,96%
same,growth at 1 µM,CCRF-CEM,93%
same,growth at 0.01 µM,MDA-MB-231,108%
same,growth at 0.01 µM,[24],102%
same,growth at 100 µM,U-251,-73%
same,growth at 1 µM,KM12,86%
same,growth at 0.1 µM,SN12C [25],101%
same,growth at 1 µM,Malme-3M,80%
same,growth at 100 µM,ACHN [26],-82%
CNC(=O)c1cc(Oc2ccc3nc(NC(=O)Nc4ccc(Cl)c(Cl)c4)sc3c2)ccn1,growth at 0.01 µM,[1],93%
same,growth at 0.1 µM,ACHN [2],94%
same,growth at 1 µM,K562,98%
same,growth at 100 µM,[3],-75%
same,growth at 1 µM,[4],106%
same,GI50,SN12C [5],3.92 µM
same,TGI,SN12C [5],> 100 µM
same,CC50,SN12C [5],> 100 µM
same,growth at 1 µM,NCI-H460,107%
same,growth at 100 µM,SK-MEL-2 [6],-48%
same,growth at 100 µM,[7],-24%
same,growth at 1 µM,[8],100%
same,GI50,[9],1.73 µM
same,TGI,[9],3.61 µM
same,CC50,[9],7.54 µM
same,growth at 100 µM,[10],-72%
same,growth at 1 µM,SK-MEL-2 [11],105%
same,growth at 0.1 µM,[12],97%
same,growth at 0.1 µM,HT-29 [13],105%
same,growth at 0.01 µM,[14],92%
same,GI50,[15],3.66 µM
same,LC50,[15],> 100 µM
same,TGI,[15],> 100 µM
same,growth at 0.1 µM,SR,105%
same,growth at 100 µM,[16],-68%
same,growth at 0.01 µM,HT-29 [17],107%
same,growth at 1 µM,[18],98%
same,growth at 1 µM,T47D,106%
same,growth at 100 µM,HT-29 [19],-49%
same,growth at 100 µM,[20],7%
same,growth at 1 µM,786-0,100%
same,GI50,[22],2.08 µM
same,TGI,[22],3.96 µM
same,CC50,[22],7.56 µM
same,growth at 0.1 µM,[23],115%
same,growth at 0.01 µM,NCI-H23,95%
same,growth at 1 µM,CCRF-CEM,100%
same,growth at 0.01 µM,MDA-MB-231,89%
same,growth at 0.01 µM,[24],97%
same,growth at 100 µM,U-251,-90%
same,growth at 1 µM,KM12,91%
same,growth at 0.1 µM,SN12C [25],107%
same,growth at 1 µM,Malme-3M,76%
same,inhibition,[27],98.6%
same,growth at 100 µM,ACHN [26],-18%
